According to ChEMBL document CHEMBL2440068, “Synthesis and evaluation of N-alkyl-S-[3-(piperidin-1-yl)propyl]isothioureas: high affinity and human/rat species-selective histamine H(3) receptor antagonists” (Bioorg Med Chem Lett, 2013):
The source made the active and inactive calls. No cut-off for these calls is given here.

Tests used:
[1] = system: Rattus norvegicus; assay: Increase of histamine release in Wistar rat hypothalamus at 10 uM administered through dialysis membrane by HPLC-fluorometric based microdialysis relative to control; assay type: functional
[2] = target: Histamine H3 receptor (Homo sapiens, UniProt Q9Y5N1); assay: Antagonist activity at human histamine H3 receptor expressed in CHO cells assessed as inhibition of forskolin/R-alpha-methylhistamine-induced cAMP accumulation after 1.5 hrs by TR-FRET immunoassay; assay type: functional, cell-based; conditions: for Kb: read-out: pA2 (converted)
Chain of Histamine H3 receptor (Q9Y5N1 whole entry): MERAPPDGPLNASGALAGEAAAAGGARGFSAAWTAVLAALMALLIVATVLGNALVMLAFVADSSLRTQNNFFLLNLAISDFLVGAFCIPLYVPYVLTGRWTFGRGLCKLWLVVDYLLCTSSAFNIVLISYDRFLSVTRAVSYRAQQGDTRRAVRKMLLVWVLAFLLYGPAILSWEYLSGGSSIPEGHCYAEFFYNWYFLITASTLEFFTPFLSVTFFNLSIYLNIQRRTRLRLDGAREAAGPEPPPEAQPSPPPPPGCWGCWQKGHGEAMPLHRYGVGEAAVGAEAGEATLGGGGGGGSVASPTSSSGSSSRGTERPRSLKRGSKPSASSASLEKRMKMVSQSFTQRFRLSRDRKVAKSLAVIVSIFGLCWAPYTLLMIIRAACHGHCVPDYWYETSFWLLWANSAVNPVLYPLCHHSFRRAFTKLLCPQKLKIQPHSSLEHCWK

[3] = target: Histamine H4 receptor (Homo sapiens) (UniProt Q9H3N8); assay: Agonist activity at human histamine H4 receptor expressed in CHO cells assessed increase of forskolin-induced cAMP accumulation at 1 uM after 1.5 hrs by TR-FRET immunoassay; assay type: functional, cell-based
[4] = target: Histamine H4 receptor (Homo sapiens) (UniProt Q9H3N8); assay: Antagonist activity at human histamine H4 receptor expressed in CHO cells assessed inhibition of forskolin/histamine-induced cAMP accumulation at 1 uM after 1.5 hrs by TR-FRET immunoassay; assay type: functional, cell-based

SMILES | IC50 [2] | Kb [2] | Activity [3] | inhibition [4] | Activity [1]
N=C(NCc1ccc(Cl)cc1)SCCCc1c[nH]cn1 [CLOBENPROPIT] | – | – | – | – | 145.6%
Cl.N=C(NCCc1ccc(Cl)cc1)SCCCN1CCCCC1 | 7.94 nM | 39.8 nM | inactive | inactive | 145.8%
O=C(CCCN1CCCCC1)NCCCCc1ccc(C(F)(F)F)cc1 | 126 nM | – | – | – | –
N#Cc1ccc(CCCCNC(=N)SCCCN2CCCCC2)cc1 | 2 nM | 2 nM | inactive | inactive | –
Cl.N=C(NCc1ccc(Cl)cc1)SCCCN1CCCCC1 | 79.4 nM | 39.8 nM | – | – | 134.4%
O=C(CCCCc1ccc(Cl)cc1)NCCCN1CCCCC1 | 316 nM | – | – | – | –
Cl.N=C(NCCCCCc1ccccc1)SCCCN1CCCCC1 | 31.6 nM | 10 nM | – | – | 90.5%

The next lines start with results.

IC50 [2] | Kb [2] | Activity [3] | inhibition [4] | SMILES | Activity [1]
31.6 nM | – | – | – | N=C(NCCc1ccc(Cl)cc1)SCCCN1CCCC1 | –
316 nM | – | – | – | N=C(NCCc1ccc(Cl)cc1)SCCCN1CCOCC1 | –
6.31 nM | 2 nM | inactive | inactive | Cl.N=C(NCCCc1ccc(Cl)cc1)SCCCN1CCCCC1 | 102.2%
6310 nM | – | – | – | N=C(NCc1ccc(Cl)cc1)SCCCN1CCNCC1 | –
15.8 nM | 12.6 nM | – | – | N=C(NCCCCc1ccc(C(F)(F)F)cc1)SCCCN1CCCCC1 | –
6.31 nM | 2 nM | inactive | inactive | N=C(NCCCCN1CCCCC1)SCCCN1CCCCC1 | –
1580 nM | – | – | – | N=C(NCc1ccc(Cl)cc1)SCCCN1CCOCC1 | –
20 nM | – | – | – | N=C(NCc1ccc(Cl)cc1)SCCCN1CCCC1 | –
126 nM | – | – | – | O=C(CCCN1CCCCC1)NCCCCc1ccc(Cl)cc1 | –
6.31 nM | 0.251 nM | inactive | inactive | Cl.N=C(NCCCCc1ccc(Cl)cc1)SCCCN1CCCCC1 | 101.2%
1260 nM | – | – | – | CN1CCN(CCCSC(=N)NCc2ccc(Cl)cc2)CC1 | –
